Laboratory results: publication PMC5078989, “Targeted inhibition of the COP9 signalosome for treatment of cancer” (Nature Communications, 2016)

Test system: panel of cancer cell lines
Test: Cell viability (CellTiter-Glo) dose-response across cancer cell line panel;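 as to EC50: after 72 h compound incubation with CellTiter-Glo ATP readout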
Type: cell-based, human
Details: for EC50: Homo sapiens
Excerpt: Next, we explored the effect of CSN5 inhibition on the viability of cancer cells. To obtain a comprehensive picture, we generated dose–response curves with a CSN5 inhibitor across more than 500 cancer cell lines in a previously described standardized setting[47] (Supplementary Data 1).
A standardized CellTiter-Glo Assay (Promega #G7570) based on the quantification of ATP was applied according to the manufacturer's protocol to measure the amount of viable cells in culture. In brief, cells were seeded into 384-well plates at optimal density for each cell line. After 4 h, compounds were added at different concentrations in growth medium and incubated for another 72 h in a humidifying chamber at 37 °C and 5% CO2. […] EC50 values were calculated from the plot of percentage of inhibition versus inhibitor concentration using the nonlinear regression analysis software Origin 7.5SR6 (OriginLab Corp.).

SMILES: CC(C)C[C@H](NC(=O)[C@H](Cc1ccccc1)NC(=O)c1cnccn1)B(O)O [Bortezomib]
- EC50 (SR-786, SR-786): 2.21 nM
- EC50 (ST486, ST486): 6.31 nM
- EC50 (SU-DHL10, SU-DHL-10): 14.5 nM
- EC50 (SU-DHL-4, SU-DHL-4): 3.28 nM
- EC50 (SU-DHL-8, SU-DHL-8): 3.8 nM
- EC50 (SUM52, cell line SUM-52): 5.48 nM
- EC50 (SUM52PE): 6.21 nM
- EC50 (SUP-M2, SUP-M2): 3.28 nM
- EC50 (SW480, SW480): 7.08 nM
- EC50 (SW837, SW837): 5.87 nM
- EC50 (SW948, SW948): 7.28 nM
- EC50 (SW1088, SW 1088): 5.94 nM
- EC50 (SW1271, cell line SW 1271): 21.5 nM
- EC50 (SW1353, SW 1353): 39.3 nM
- EC50 (SW1417, SW1417): 6.52 nM
- EC50 (SW1573, SW 1573): 20.5 nM
- EC50 (SW1783, SW 1783): 16.4 nM
- EC50 (SW1990, SW 1990): 8.71 nM
- EC50 (SW-620, SW620): 7.95 nM
- EC50 (T47D, T-47D): 10.4 nM
- EC50 (T84, T84): 12.1 nM
- EC50 (T98G): 9.62 nM
- EC50 (T-24, T24): 9.77 nM
- EC50 (TC-71, TC-71): 11.4 nM
- EC50 (TE-4): 5.89 nM
- EC50 (TE-6, TE-6): 43.9 nM
- EC50 (TE-10, TE-10): 11.2 nM
- EC50 (TE-11, cell line TE-11): 28.9 nM
- EC50 (TE-15, cell line TE-15): 16.7 nM
- EC50 (TEN): 9.94 nM
- EC50 (TF-1, TF-1): 1.67 nM
- EC50 (THP-1, THP-1): 6.6 nM
- EC50 (TOV21G, cell line TOV-21G): 4.25 nM
- EC50 (TOV112D, TOV-112D): 28.7 nM
- EC50 (TT2609-C02): 19.3 nM
- EC50 (U266B1): 3.37 nM
- EC50 (U-118-MG, U-118 MG): 7.81 nM
- EC50 (U-251, U-251 MG): 6.91 nM
- EC50 (U-937, U-937): 5.81 nM
- EC50 (UACC-62, UACC-62): 19.5 nM
- EC50 (UACC-257, UACC-257): 10.9 nM
- EC50 (UMUC3, UM-UC-3): 15.1 nM
- EC50 (VM-CUB-1, VM-CUB1): 10.1 nM
- EC50 (VMRC-RCW): 5.3 nM
- EC50 (WM 266-4, WM-266-4): 24.4 nM
- EC50 (WM793, WM-793): 15.5 nM
- EC50 (WM983B, WM-983B): 8.77 nM
- EC50 (WM-88): 7.78 nM
- EC50 (WM-115, WM-115): 6.28 nM
- EC50 (WM-1799, WM1799): 7.42 nM
- EC50 (WSUDLCL2, WSU-DLCL2): 4.13 nM
- EC50 (YAPC): 22.7 nM
- EC50 (YKG-1, YKG1): 7.27 nM
- EC50 (YMB-1): 16.2 nM
- EC50 (Z-138, cell line Z-138): 5.73 nM
- EC50 (ZR-75-1, ZR-75-1): 21.1 nM
- EC50 (ZR-75-30, ZR-75-30): 10.2 nM
- EC50 (cell line AGS): 9.36 nM
- EC50 (cell line BDCM): 7.98 nM
- EC50 (cell line EB1): 6.47 nM
- EC50 (cell line EB2): 6.46 nM
- EC50 (cell line GCT): 19 nM
- EC50 (cell line GI-1): 8.94 nM
- EC50 (cell line H4): 11.5 nM
- EC50 (cell line HH): 3.05 nM
- EC50 (cell line HuG1-N): 1.83 nM
- EC50 (cell line JHH-5): 17 nM
- EC50 (cell line KS-1): 10.1 nM
- EC50 (cell line KURAMOCHI): 30.9 nM
- EC50 (cell line LC-1/sq-SF): 18.8 nM
- EC50 (cell line LP-6): 10.3 nM
- EC50 (cell line MEL-HO): 5.3 nM
- EC50 (cell line MJ): 2.8 nM
- EC50 (cell line MOG-G-UVW): 19.9 nM
- EC50 (cell line Mel285): 8.2 nM
- EC50 (cell line NCI-H2330): 32.2 nM
- EC50 (cell line OMM2.3): 12.1 nM
- EC50 (cell line OMM2.5): 21.7 nM
- EC50 (cell line PC-3): 14.3 nM
- EC50 (cell line RERF-LC-MS): 41.7 nM
- EC50 (cell line RKO): 8.53 nM
- EC50 (cell line RL): 3.25 nM
- EC50 (cell line T778): 18.6 nM
- EC50 (cell line TE 617.T): 6.87 nM
- EC50 (cell line TE-1): 15.6 nM
- EC50 (cell line TE-5): 7.97 nM
- EC50 (cell line VMRC-RCZ): 8.46 nM
- EC50 (cell line WS1): 17.6 nM
- AMAX (Hs 611.T): -95.5359
- AMAX (Hs 729): -96.5684
- AMAX (Hs 936.T): -95.7878
- AMAX (Hs 940.T): -97.1382
- AMAX (IGR-1): -97.3166
- AMAX (JHOM-1): -95.2005
- AMAX (JVM-3): -96.4391
- AMAX (KARPAS-620): -98.4285
- AMAX (KCL-22): -97.2427
- AMAX (KHM-1B): -96.7668
- AMAX (KLE): -91.799
- AMAX (KMS-28BM): -96.7467
- AMAX (KO52): -96.777
- AMAX (KU812): -97.0553
- AMAX (KYM-1): -96.8984
- AMAX (KYO-1): -96.2465
- AMAX (Ki-JK): -96.7338
- AMAX (L-363): -96.7867
- AMAX (LAMA-84): -97.7452
- AMAX (LCLC-97TM1): -96.2648
- AMAX (LCLC-103H): -95.0382
- AMAX (LMSU): -95.8427
- AMAX (LU99): -96.2849
- AMAX (LXF-289): -97.2241
- AMAX (Li-7): -96.9283
- AMAX (MB 157): -95.9545
- AMAX (MHH-NB-11): -96.8993
- AMAX (MOLM-16): -96.6028
- AMAX (MOLP-8): -96.4824
- AMAX (MONO-MAC-1): -98.0152
- AMAX (MONO-MAC-6): -96.8971
- AMAX (NCI-H28): -96.1421
- AMAX (NCI-H841): -95.8407
- AMAX (NCI-H1184): -95.7721
- AMAX (NCI-H1341): -97.2357
- AMAX (NCI-H1869): -96.9482
- AMAX (NCI-H2073): -96.9774
- AMAX (NOMO-1): -95.3675
- AMAX (OC 316): -96.5256
- AMAX (OCI-AML2): -96.7921
- AMAX (OCI-AML3): -95.7952
- AMAX (OCI-AML5): -97.923
- AMAX (OCI-M1): -95.2925
- AMAX (ONCO-DG-1): -96.4992
- AMAX (OS-RC-2): -96.3701
- AMAX (OUMS-23): -95.8674
- AMAX (OV7): -92.7444
- AMAX (P31/FUJ): -96.7178
- AMAX (PA-TU-8988S): -97.262
- AMAX (PE/CA-PJ41 (clone D2)): -95.4895
- AMAX (RI-1): -96.2187
- AMAX (RMUG-S): -96.7615
- AMAX (RVH-421): -95.9743
- AMAX (SF126): -95.9565
- AMAX (SK-N-SH): -96.5195
- AMAX (SNU-216): -96.337
- AMAX (SW620): -96.6127
- AMAX (SW837): -95.7546
- AMAX (SW948): -95.7047
- AMAX (SW 1783): -94.9618
- AMAX (T84): -98.3103
- AMAX (T98G): -96.5841
- AMAX (T-47D): -97.6577
- AMAX (THP-1): -96.3023
- AMAX (U-118 MG): -95.817
- AMAX (UACC-257): -95.0265
- AMAX (VMRC-RCW): -96.9199
- AMAX (YMB-1): -91.0668
- Amax (high-concentration effect level) (across all cell lines of the panel, 72 h): −95% to −100
- AMAX (all cell lines of a selection from the panel (Fig. 3b)): ≤ −95%
